Key:
human ALK2 R206H = molecular target: T1, human ALK2 R206H (Homo sapiens, UniProt Q04771, R206H); assay: Cell-based ALK2-R206H cell activity assay (Smad1-Ser463/Ser465 phosphorylation by AlphaLISA in HEK293-ALK2-R206H cells); conditions: read-out: Cell Line (Cell Assay IC50)
T1 construct: expressed in transfected cells; host or cells: HEK293 (ATCC CRL1573), lentivirus transduction, blasticidin selection
T1 sequence (Q04771 21-509 R206H): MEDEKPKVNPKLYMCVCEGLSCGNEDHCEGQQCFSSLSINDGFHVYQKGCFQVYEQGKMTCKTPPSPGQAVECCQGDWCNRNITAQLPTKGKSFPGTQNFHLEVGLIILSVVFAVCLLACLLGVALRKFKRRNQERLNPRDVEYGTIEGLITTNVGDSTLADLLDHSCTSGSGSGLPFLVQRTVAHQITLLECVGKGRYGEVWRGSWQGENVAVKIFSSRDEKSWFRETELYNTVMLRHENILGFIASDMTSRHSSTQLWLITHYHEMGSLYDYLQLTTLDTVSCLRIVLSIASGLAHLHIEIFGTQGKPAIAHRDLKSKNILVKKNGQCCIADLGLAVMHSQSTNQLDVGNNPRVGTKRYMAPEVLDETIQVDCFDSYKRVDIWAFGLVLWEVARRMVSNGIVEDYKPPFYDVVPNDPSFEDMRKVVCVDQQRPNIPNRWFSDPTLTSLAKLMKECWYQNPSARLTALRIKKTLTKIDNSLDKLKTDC
Method: A HEK293 (ATCC, Cat^# CRL1573) based stable cell line expressing human ALK2 R206H cDNA (synthesized by GeneScript, Piscataway, N.J.) and a FLAG tag at the C-terminus was generated by lentivirus transduction and subsequent blasticidin (Life Technologies, Cat^#-A1113902) selection at 10 μg/ml for >2 wks. This cell line was named HEK293-ALK2-R206H.
Test compounds were first diluted to 4 mM or 0.4 mM and then serially diluted 3-fold into 10 different concentrations using DMSO. […] Two μl of the diluted compounds were then dispensed into the HEK293-ALK2-R206H cell-containing wells of the microplates in duplicates. In this way, each compound was tested in 10 doses (3-fold serial dilution with the top concentration being 10 μM or 1 μM). Liquid handling was achieved using a Bravo Automated Liquid Handling Platform (Agilent Technologies). DMSO without compound was used as a negative control. The positive control was 1 μM LDN193189, a known bone morphogenetic protein (BMP inhibitor).
The 10-point dose response curve was used to calculate the IC50 values.
Blank values in the table indicate that the particular compound was not tested in this assay.

[1] = molecular target: T2, ALK2 R206H (GST-tagged mutant ALK2) (Homo sapiens, UniProt Q04771, R206H); assay: ALK binding assay (LANTHASCREEN TR-FRET competitive binding, displacement of Kinase Tracer 178); conditions: ALK2 R206H, LANTHASCREEN TR-FRET competitive binding; read-out: Binding Assay (IC50)
T2 construct: purchased Carna Bioscience or ThermoFisher 09-148 or PV6232
T2 sequence (Q04771 21-509 R206H): T1 sequence (Q04771 21-509 R206H)

SMILES	IC50 (human ALK2 R206H)	IC50 [1]
CC(C)N1CCc2nc(-c3cc4c(N5CCN(C(=O)C6CC6)CC5)ccnn4c3)sc2C1 [Compound 191]	< 100 nM	< 10 nM
CCNC(=O)N1CCN(c2ccnn3cc(-c4cc5c(s4)CN(C(C)C)CC5)cc23)CC1 [Compound 192]	< 100 nM	< 10 nM
CCNC(=O)N1CCN(c2ccnn3cc(-c4nc5c(s4)CN(C(C)C)CC5)cc23)CC1 [Compound 193]	< 100 nM	< 10 nM
O=C(C1CC1)N1CCN(c2ccnn3cc(-c4cnn(C5CNCC(F)(F)C5)c4)cc23)CC1 (stereo not drawn) [Compound 194, cyclopropyl(4-(6-(1-(5,5-difluoropiperidin-3-yl)-1H-pyrazol-4-yl)pyrrolo[1,2-b]pyridazin-4-yl)piperazin-1-yl)methanone]	100 to 500 nM	10 to 50 nM
N#C[C@H]1C[C@@H]1C(=O)N1CCN(c2ccnn3cc(-c4ccc(C5CNCCO5)cc4)cc23)CC1 (stereo partly drawn) [Compound 195]	< 100 nM	< 10 nM
O=C(C1CC1)N1CCN(c2ccnn3cc(-c4ccc(N5CCN6CCC6C5)cc4)cc23)CC1 (stereo not drawn) [Compound 196]	100 to 500 nM	< 10 nM
O=C(C1CC1)N1CCN(c2ccnn3cc(-c4ccc(N5CC6(CCNC6)C5)cc4)cc23)CC1 [Compound 197]	100 to 500 nM	10 to 50 nM
C[C@@H]1CN(c2ccnn3cc(-c4ccc(N5CCNCC5)cc4)cc23)CCN1C(=O)CCC#N [Compound 199]	< 100 nM	< 10 nM
CCN1CCC(c2ccc(-c3cc4c(N5CCN(C(=O)C6CC6)CC5)ccnn4c3)cc2)CC1 [Compound 200]	< 100 nM	< 10 nM
CC(C)N1CCC(c2ccc(-c3cc4c(N5CCN(C(=O)C6CC6)CC5)ccnn4c3)cc2)C1 (stereo not drawn) [Compound 201]	< 100 nM	< 10 nM
CCN1CCCC(c2ccc(-c3cc4c(N5CCN(C(=O)C6CC6)CC5)ccnn4c3)cc2)C1 (stereo not drawn) [Compound 202]	< 100 nM	< 10 nM
CC(C)N1CC[C@@H](c2ccc(-c3cc4c(N5CCN(C(=O)C6CC6)CC5)ccnn4c3)cc2)C1 [Compound 203]	< 100 nM	< 10 nM
CC(C)N1CC[C@H](c2ccc(-c3cc4c(N5CCN(C(=O)C6CC6)CC5)ccnn4c3)cc2)C1 [Compound 204]	< 100 nM	< 10 nM
CCN1CCC(c2ccc(-c3cc4c(N5CCN(C(=O)CC6CC6)CC5)ccnn4c3)cc2)C1 (stereo not drawn) [Compound 205]	100 to 500 nM	10 to 50 nM
CCN1CCC[C@H](c2ccc(-c3cc4c(N5CCN(C(=O)C6CC6)CC5)ccnn4c3)cc2)C1 [Compound 207]	< 100 nM	< 10 nM
CCN1CCC(c2ccc(-c3cc4c(N5CCN(C(=O)[C@H]6C[C@@H]6C)CC5)ccnn4c3)cc2)C1 (stereo partly drawn) [Compound 208]	< 100 nM	< 10 nM
CC(C)N1CCCC1c1ccc(-c2cc3c(N4CCN(C(=O)C5CC5)CC4)ccnn3c2)cc1 (stereo not drawn) [Compound 209]	< 100 nM	< 10 nM
CC(C)N1CCC[C@H]1c1ccc(-c2cc3c(N4CCN(C(=O)C5CC5)CC4)ccnn3c2)cc1 [Compound 210]	< 100 nM	< 10 nM
CC(C)N1CCC[C@@H]1c1ccc(-c2cc3c(N4CCN(C(=O)C5CC5)CC4)ccnn3c2)cc1 [Compound 211]	< 100 nM	< 10 nM
CN1CCN(c2ccc(-c3cc4c(N5CCN(C(=O)C6CCC6)CC5)ccnn4c3)cc2)CC1 [Compound 212]	100 to 500 nM	< 10 nM
CCN1CCN(c2ccc(-c3cc4c(N5CCN(C(=O)C6CC6)CC5)ccnn4c3)cc2)CC1 [Compound 213]	< 100 nM	< 10 nM
CCN1CCOC(c2ccc(-c3cc4c(N5CCN(C(=O)C6CC6)CC5)ccnn4c3)cc2)C1 (stereo not drawn) [Compound 214, cyclopropyl(4-(6-(4-(4-ethylmorpholin-2-yl)phenyl)pyrrolo[1,2-b]pyridazin-4-yl)piperazin-1-yl)methanone]	100 to 500 nM	10 to 50 nM
CCN1CCC(Oc2ccc(-c3cc4c(N5CCN(C(=O)C6CC6)CC5)ccnn4c3)cc2)C1 (stereo not drawn) [Compound 216]	< 100 nM	< 10 nM
CCN1CC(COc2ccc(-c3cc4c(N5CCN(C(=O)C6CC6)CC5)ccnn4c3)cc2)C1 [Compound 217]	100 to 500 nM	< 10 nM

SMILES	IC50 (human ALK2 R206H)	IC50 [1]
CC(C)N1CC(O)(c2ccc(-c3cc4c(N5CCN(C(=O)C6CC6)CC5)ccnn4c3)cc2)C1 [Compound 219]	< 100 nM	< 10 nM
CCN1CCN(c2ccc(-c3cc4c(N5CCN(C(=O)C6CC6)CC5)ccnn4c3)cn2)CC1 [Compound 221]	100 to 500 nM	< 10 nM
CCN1CCN(c2ccc(-c3cc4c(N5CCN(C(=O)C6CC6)CC5)ccnn4c3)nc2)CC1 [Compound 222]	< 100 nM	< 10 nM
CCN1CCN(c2ccc(-c3cc4c(N5CCN(C(=O)C(C)C)CC5)ccnn4c3)cc2)CC1 [Compound 223]	100 to 500 nM	10 to 50 nM
CCNC(=O)N1CCN(c2ccnn3cc(-c4ccc([C@@H]5CCN(C(C)C)C5)cc4)cc23)CC1 [Compound 224]	< 100 nM	< 10 nM
CCNC(=O)N1CCN(c2ccnn3cc(-c4ccc([C@H]5CCN(C(C)C)C5)cc4)cc23)CC1 [Compound 225]	< 100 nM	< 10 nM
CCN1CC[C@H](c2ccc(-c3cc4c(N5CCN(C(=O)[C@H]6C[C@H]6F)CC5)ccnn4c3)cc2)C1 [Compound 226]	< 100 nM	< 10 nM
CCN1CC[C@@H](c2ccc(-c3cc4c(N5CCN(C(=O)[C@H]6C[C@H]6F)CC5)ccnn4c3)cc2)C1 [Compound 227]	< 100 nM	< 10 nM
CCN1CC(F)C(c2ccc(-c3cc4c(N5CCN(C(=O)C6CC6)CC5)ccnn4c3)cc2)C1 (stereo not drawn) [Compound 228]	< 100 nM	< 10 nM
O=C(C1CCC1)N1CCN(c2ccnn3cc(-c4ccc(C5(F)CCCNC5)cc4)cc23)CC1 (stereo not drawn) [Compound 229]	< 100 nM	< 10 nM
CCOC(=O)N1CCN(c2ccnn3cc(-c4ccc(C5CCN(CC)CC5)cc4)cc23)CC1 [Compound 230, ethyl 4-(6-(4-(1-ethylpiperidin-4-yl)phenyl)pyrrolo[1,2-b]pyridazin-4-yl)piperazine-1-carboxylate]	< 100 nM	< 10 nM
CCOC(=O)N1CCN(c2ccnn3cc(-c4ccc([C@H]5CCN(C(C)C)C5)cc4)cc23)CC1 [Compound 231]	< 100 nM	< 10 nM
COC(=O)N1CCN(c2ccnn3cc(-c4ccc(C5CCN(C(C)C)CC5)cc4)cc23)CC1 [Compound 232]	100 to 500 nM	< 10 nM
O=C(C1CC(F)C1)N1CCN(c2ccnn3cc(-c4ccc(N5CCNCC5)cc4)cc23)CC1 (stereo not drawn) [Compound 234]	< 100 nM	< 10 nM
CCNC(=O)N1CCN(c2ccnn3cc(-c4ccc(C5(O)CN(C(C)C)C5)cc4)cc23)CC1 [Compound 235]	100 to 500 nM	< 10 nM
CCOC(=O)N1CCN(c2ccnn3cc(-c4ccc(OC5CN(C(C)C)C5)cc4)cc23)CC1 [Compound 236]	100 to 500 nM	< 10 nM
[2H]C([2H])([2H])C([2H])([2H])N1CCN(c2ccc(-c3cc4c(N5CCN(C(=O)C6CC6)CC5)ccnn4c3)cc2)CC1 [Compound 237]	< 100 nM	< 10 nM
O=C(C1CC1)N1CCN(c2ccnn3cc(-c4ccc(C5CCNCC5(F)F)cc4)cc23)CC1 (stereo not drawn) [Compound 238]	100 to 500 nM	< 10 nM
[2H]C([2H])([2H])C([2H])([2H])N1CCN(c2ccc(-c3cc4c(N5CCN(C(=O)NCC)CC5)ccnn4c3)cc2)CC1 [Compound 240]	< 100 nM	< 10 nM
CCN1CC2(C1)CN(c1ccc(-c3cc4c(N5CCN(C(=O)C6CC6)CC5)ccnn4c3)cc1)C2 [Compound 241]	< 100 nM	< 10 nM
CCN1C[C@@H]2C[C@H]1CN2c1ccc(-c2cc3c(N4CCN(C(=O)C5CC5)CC4)ccnn3c2)cc1 [Compound 242]	100 to 500 nM	< 10 nM
O=C(C1CC1)N1CCN(c2ccnn3cc(-c4ccc(N5CCN6CCCC6C5)cc4)cc23)CC1 (stereo not drawn) [Compound 243]	< 100 nM	< 10 nM
CC(=O)N1CCC(c2ccc(-c3cc4c(N5CCN(C(=O)C6CC6)CC5)ccnn4c3)cc2)CC1 [Compound 245]	100 to 500 nM	10 to 50 nM
CC(C)N1CCC(c2ccc(-c3cc4c(N5CCN(C(=O)C6CC6)CC5)ccnn4c3)cc2)CC1 [Compound 246]	< 100 nM	< 10 nM
